Laboratory results: paper PMC9441068, “Novel eIF4A1 inhibitors with anti‐tumor activity in lymphoma” (Molecular Medicine, 2022)

Legend:
Assay type in all cases: biochemical
human eIF4A1 [1] = target: T1, human eIF4A1 (Homo sapiens, UniProt P60842); assay: malachite green phosphate release (RNA-dependent ATPase) assay; also Cy3/Cy5 RNA unwinding assay (IC50 […])
human eIF4A1 [2] = target: T1, human eIF4A1; assay: malachite green phosphate release (RNA-dependent ATPase) assay
human eIF4A1 [3] = target: T1, human eIF4A1; assay: malachite green phosphate release (RNA-dependent ATPase) assay; also Cy3/Cy5 RNA unwinding assay (IC50 […]); remark: listed apart in the source

T1 sequence (P60842 2-406): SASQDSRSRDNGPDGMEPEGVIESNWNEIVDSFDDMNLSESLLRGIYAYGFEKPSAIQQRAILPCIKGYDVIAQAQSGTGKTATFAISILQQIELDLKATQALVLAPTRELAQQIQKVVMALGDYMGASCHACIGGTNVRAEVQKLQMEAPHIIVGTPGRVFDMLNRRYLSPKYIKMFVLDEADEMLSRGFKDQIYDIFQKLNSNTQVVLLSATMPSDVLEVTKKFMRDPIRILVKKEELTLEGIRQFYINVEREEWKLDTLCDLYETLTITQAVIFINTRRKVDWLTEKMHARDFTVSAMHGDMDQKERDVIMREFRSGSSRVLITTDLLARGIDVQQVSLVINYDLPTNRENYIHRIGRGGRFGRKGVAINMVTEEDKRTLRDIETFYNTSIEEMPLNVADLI

IC50 (human eIF4A1 [2]) [nM] | further results | SMILES
– | IC50 (human eIF4A1 [1]): 0.0552 nM | CC(=NNC(=O)c1nnn(-c2nonc2N)c1CSc1nncn1C)c1ccccc1O [RBF197]
3000 | – | CC(=NNC(=O)c1nnn(-c2nonc2N)c1CSc1nncn1C)c1cccc(O)c1 [RBF98]
– | IC50 (human eIF4A1 [3]): 0.0741 nM | Cn1cnnc1SCc1c(C(=O)NN=Cc2ccccc2O)nnn1-c1nonc1N [RBF208]
0.209 | – | CC(=NNC(=O)c1nnn(-c2nonc2N)c1CSc1nncn1C)c1ccccc1O [RBF203]
